From publication PMC9241057, “Ru(II)arene(N^N bpy/phen)-based RAPTA complexes for in vitro anti-tumour activity in human glioblastoma cancer cell lines and in vivo toxicity studies in a zebrafish model” (RSC Advances, 2022) come the findings set out here.

One series concerns LN229. Nature of the series: MTT cytotoxicity assay, LN229. Conditions: 72 h incubation. The class given is cell-based, human. As to the method: (§1) The cytotoxic activity of prepared RAPTA complexes (4a–4h) was evaluated by following the standard procedure of the MTT experiment against a series of glioblastoma cells (LN 229, T98, U87MG) in triplicate. In order to accomplish this study, cells were maintained for 72 h with complexes of various concentrations ranging from 2–160 μM, taking cisplatin as a typical positive control.[22]
(§2) RAPTA complexes were dissolved in 1% DMSO, and 0.9% NaCl aqueous solution was used to dissolve cisplatin. A cell suspension was prepared and the number of cells taken was 2.5 × 10^4 mL^−1. The cells were seeded in 96-well plates (200 μL per well) and allowed 80% confluence prior to treatment. The cells were formerly treated with various concentrations (2.5–160 μM) of complex 4a–h while the control group was treated with PBS […]. After the 72 hours of incubation, 0.5% MTT solution was added to each well (20 μL) and further incubated for 4 hours at […]. The formazan crystals that were formed were dissolved in 150 μL DMSO and then the OD was measured by a microplate reader at 540 nm. The % growth inhibition of the control and treated cells were calculated and represented as the growth inhibition percentage as explained below.% growth inhibition = 100 − [(AD × 100)/AB]where AD is the absorbance measured in wells containing the treated and control samples and AB is the measured absorbance for the wells with media and a vehicle that served as the blank. IC50 was calculated using Graphpad Prism (version 6.0) where % cell viability was plotted against drug concentration.

In another series the test system is U87MG. As to the kind of experiment: MTT cytotoxicity assay, U87MG. The class given is cell-based, human. Conditions: 72 h incubation. As to the method:
as §1, §2

The next series in a line: Conductivity measurement. The class given is physicochemical. Conditions: 3 x 10^-5 M; for Conductivity (ΛM) 10% aq DMSO: in 10% aq DMSO; for Conductivity (ΛM) DMSO: in DMSO. The text has this: (§3) concentrations gradually.
Origin Lab, version 8.5 was
(§4) equation (v) given below: […]
Conductivity measurement 7
complexes with DMSO and aqueous DMSO.
followed the previously described procedure. An orbital shaker was used to shake a known
Different ratios (0.5:1, 1:1,
saturated n-octanol to get the partition coefficient. The absorbance of aliquots of the aqueous

Series [1] has as its target bovine serum albumin (BSA) (Bos taurus, UniProt P02769). Nature of the series: BSA binding study, tryptophan emission quenching. The following applies: for n, number of binding sites (BSA): Scatchard equation; for kq, quenching rate constant (BSA): from KBSA and τo (1 × 10^−8 s). As to the method: The KBSA of the complexes was obtained from Stern–Volmer plots by applying the well-known Stern–Volmer equation (Fig. S4 ^†). On the other hand, the quenching constants (kq) of 6.3 × 10^14 M^−1 s^−1 and 1.8 × 10^14 M^−1 s^−1 arising from biomolecular interactions were evaluated from KBSA and τo (1 × 10^−8 s) for the complexes 4c and 4d, correspondingly (Table S3 ^†). […]
Kapp × [Complex]50 = kEtBr × [EtBr]⋯⋯⋯(iii) […]
Stern-Volmer equation was followed for quantitative determination of the Stern-Volmer quenching constant (K SV).4 Origin (8.5) software was used to plot the fluorescence data to obtain linear plot of I0/I vs. [complex]. The value of KSV was calculated from the following […]
Where I0 = fluorescence intensity in absence of complex and I = fluorescence intensities in presence of complex of concentration [Q].
Protein binding studies 5
The main component is serum albumin proteins in drug transport and metabolism, as we all know. The interaction of the complex with […] serum albumin (BSA) was examined using a tryptophan emission quenching experiment. The association of the RAPTA complexes 4c and 4d with the protein BSA was detected using a tryptophan emission quenching assay. […]
as §3
Origin Lab, version 8.5 was […]
as §4

For another series, the system named is T98G cell line. As to the kind of experiment: Time-dependent ROS generation study, DCFH-DA staining. The class given is cell-based, human. The following applies: 20 μM, 2, 6 and 10 h. As to the method:
The oxidative stress was measured by the level of intracellular ROS via 2′,7′-dichlorodihydrofluorescein diacetate (DCFH-DA) staining.[24] […] Herein, cells were treated with complexes 4c and 4d with a concentration of 20 μM for 2, 6 and 10 h. We observed a higher level of […] fluorescence with the increase in the incubation time because of ROS generation (Fig. 6).
Fig. 7 Graphical representation of the average DCF fluorescence intensity in the T98G cell line upon treatment with cisplatin and complexes 4c and 4d. Incubation time: 2 h, 6 h and 10 h.
Brain cancer cells were stained with 2′,7′-dichlorofluorescein diacetate (DCFDA) to measure the reactive oxygen species (ROS) and subsequent oxidative stress generated from RAPTA complexes. They were restained by the […] fluorescence intensity generated from oxidized DCFDA. The cancer cells were cultured in a 24-well plate till 70% confluency and treatment was carried out with the aforesaid complex for 24 hours. The ROS generation mediated by the complex was evaluated using DCFDA-2′,7′-dichlorofluorescein diacetate (25 μM) staining for 30 min. The cells were washed with PBS, followed by fresh media replenishment. The images were captured under the EVOS M5000 fluorescent live cell imager (Thermo Fisher Scientific, USA).

The test system of the next series is VEGF. Nature of the series: VEGF Elisa test. The class given is cell-based, human. Conditions: U87MG and T98G, 1 to 20 μM. The text has this: The vascular endothelial growth factor (VEGF), formerly known as the vascular permeability factor (VPF) is a signal protein produced by many cells, which stimulates blood vessel formation. In hypoxic conditions when blood circulation is insufficient in the cells, VEGF restores the oxygen supply to tissues.[26] Proper blood supply is required for solid tumour proliferation beyond a limited size; therefore, cancers that can express VEGF are able to grow and metastasize. Two cancer cells, i.e. U87MG and T98G were incubated with increased concentrations (1 to 20 μM) of 4c and 4d and the % of inhibition of VEGF was estimated by an ELISA reader.
The capture antibody was diluted to the working concentration in PBS without the carrier protein for coating the 96-well plate. The plate was sealed and incubated overnight at room temperature. It was then aspirated and washed three times with wash buffer and blocked by adding 300 μL of reagent diluent to each well and then incubating at room temperature for a minimum of 1 h. This aspiration was repeated again and then the plate was ready for sample addition.
The cells (U87MG and T98G) were treated for 48 h and the supernatants were collected; 100 μL of these samples were added per well and incubated for 2 h at room temperature. […] The optical density of each well was measured immediately by an Elisa reader (λexc = 450 nm).

bovine serum albumin (BSA), sequence (P02769 25-607): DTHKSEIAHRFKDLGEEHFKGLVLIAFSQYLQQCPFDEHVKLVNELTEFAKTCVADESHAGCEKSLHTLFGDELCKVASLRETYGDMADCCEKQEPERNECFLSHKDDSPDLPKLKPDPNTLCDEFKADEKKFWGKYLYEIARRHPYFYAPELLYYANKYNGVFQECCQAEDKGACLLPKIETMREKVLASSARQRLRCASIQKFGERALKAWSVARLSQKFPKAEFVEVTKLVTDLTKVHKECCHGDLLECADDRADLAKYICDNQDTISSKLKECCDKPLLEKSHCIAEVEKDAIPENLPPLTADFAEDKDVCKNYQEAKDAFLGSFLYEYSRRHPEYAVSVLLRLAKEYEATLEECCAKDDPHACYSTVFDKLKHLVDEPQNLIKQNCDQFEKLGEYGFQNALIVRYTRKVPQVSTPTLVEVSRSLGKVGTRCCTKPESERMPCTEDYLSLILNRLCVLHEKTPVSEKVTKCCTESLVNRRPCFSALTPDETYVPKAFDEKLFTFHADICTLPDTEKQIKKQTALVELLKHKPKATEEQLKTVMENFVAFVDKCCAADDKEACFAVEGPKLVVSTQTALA

The molecule `C1N2CN3CN1CP(C2)C3.Cc1ccc(C(C)C)cc1.Cc1ccnc2c1ccc1c(C)ccnc12.F[P-](F)(F)(F)(F)F.F[P-](F)(F)(F)(F)F.[Ru+2]` [4c, [(η^6-p-Cymene)Ru^II(κ^2-N,N-4,7dimethylphenanthroline)(PTA)]·2PF6] yielded a half-maximal inhibitory concentration (IC50) in the series on LN229 of 0.88 ± 0.02 µM. Moreover, the IC50 in the series on U87MG came to 0.97 ± 0.02 µM. Moreover, in “Conductivity measurement”, the “Conductivity (ΛM) 10% aq DMSO” value is 78 S cm2 mol-1 and the “Conductivity (ΛM) DMSO” value stood at 76 S cm2 mol-1. In series [1], the “n, number of binding sites (BSA)” value was determined as 1 and the “kq, quenching rate constant (BSA)” value stood at 6.3e+14 M⁻¹ s⁻¹. For the same molecule, the “average DCF fluorescence intensity (intracellular ROS)” value in the series on T98G cell line is on record as “gradual increase with respect to the incubation time”. Besides, the “VEGF concentration with the increase in complex concentration” value in the series with VEGF is given as “constant decrease”.

As to `C1N2CN3CN1CP(C2)C3.Cc1ccc(C(C)C)cc1.F[P-](F)(F)(F)(F)F.F[P-](F)(F)(F)(F)F.[Ru+2].c1ccc(-c2ccnc3c2ccc2c(-c4ccccc4)ccnc23)cc1` [4d, [(η^6-p-Cymene)Ru^II(κ^2-N,N-4,7diphenylphenanthroline)(PTA)]·2PF6], the IC50 in the series with LN229 turned out to be 0.96 ± 0.02 µM. For the same molecule, in the series with U87MG, the 50% inhibitory concentration (IC50) came to 0.93 ± 0.02 µM. Also, in the series “Conductivity measurement”, the “Conductivity (ΛM) 10% aq DMSO” value is reported as 77 S cm2 mol-1 and the “Conductivity (ΛM) DMSO” value stood at 74 S cm2 mol-1. Besides, in series [1], the “n, number of binding sites (BSA)” value is given as 1 and the “kq, quenching rate constant (BSA)” value came out at 1.8e+14 M⁻¹ s⁻¹. The “K, binding constant with BSA” value in series [1] (Scatchard plot) turned out to be 52500 M⁻¹. In addition, the “average DCF fluorescence intensity (intracellular ROS)” value in the series on T98G cell line is on record as “gradual increase with respect to the incubation time”. The “VEGF concentration with the increase in complex concentration” value in the series on VEGF is on record as “constant decrease”.
